What is called MRT is a mean duration of stay, worked out from the concentration-time curve. As a reminder, the Tmax is the time at which the peak concentration occurs. As usually defined, the IC50 is the concentration that gives 50% inhibition.

Two compounds from patent US20230043863A1, “HETEROAROMATIC DERIVATIVES FOR USE AS REGULATOR, PREPARATION METHOD THEREFOR AND USE THEREOF” (JIANGSU HANSOH PHARMACEUTICAL GROUP CO., LTD., priority 2018, published 2023) can be followed below.

Data set [1] can be described thus: Balb/C mouse pharmacokinetics (plasma, colon, ileum). The class given is in vivo. The conditions noted are these: male, po, Balb/C mice, p.o. 5 mg/kg; for Cmax: read-out: Blood concentration Cmax; for AUC(0-t): read-out: Curve area AUC0-t; for MRT: read-out: Mean detention time MRT; for Tmax: read-out: Time to peak tmax; for AUC(0-inf): read-out: Curve area AUC0-∞; for half-life: read-out: Half life period t1/2 (converted). In outline: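 Male Balb/C mice (12 per group), fasted overnight, given 5 mg/kg p.o.; plasma, ileum and colon sampled at 0–7 h. Drug levels by LC/MS/MS, […]; parameters include colon/ileum and colon/plasma concentration ratios.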

The target in data set [2] is JAK2 (Homo sapiens, UniProt O60674). The experiment in a line: JAK kinase activity inhibition, TR-FRET (JAK2). Format: biochemical. The conditions noted are these: TR-FRET kinase assay. In short, it runs like this: (§1)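 TR-FRET read (≈620 and 665 nm) after EDTA quench and 1-24 h antibody detection at RT. Kinase 0.1-20 nM, peptide substrate + ATP, 0.5-5 h RT reaction in HEPES 50-250 mM, MgCl2 5-20 mM. IC50 from 4-parameter fit vs DMSO and no-kinase controls.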
JAK2, sequence (O60674 whole entry): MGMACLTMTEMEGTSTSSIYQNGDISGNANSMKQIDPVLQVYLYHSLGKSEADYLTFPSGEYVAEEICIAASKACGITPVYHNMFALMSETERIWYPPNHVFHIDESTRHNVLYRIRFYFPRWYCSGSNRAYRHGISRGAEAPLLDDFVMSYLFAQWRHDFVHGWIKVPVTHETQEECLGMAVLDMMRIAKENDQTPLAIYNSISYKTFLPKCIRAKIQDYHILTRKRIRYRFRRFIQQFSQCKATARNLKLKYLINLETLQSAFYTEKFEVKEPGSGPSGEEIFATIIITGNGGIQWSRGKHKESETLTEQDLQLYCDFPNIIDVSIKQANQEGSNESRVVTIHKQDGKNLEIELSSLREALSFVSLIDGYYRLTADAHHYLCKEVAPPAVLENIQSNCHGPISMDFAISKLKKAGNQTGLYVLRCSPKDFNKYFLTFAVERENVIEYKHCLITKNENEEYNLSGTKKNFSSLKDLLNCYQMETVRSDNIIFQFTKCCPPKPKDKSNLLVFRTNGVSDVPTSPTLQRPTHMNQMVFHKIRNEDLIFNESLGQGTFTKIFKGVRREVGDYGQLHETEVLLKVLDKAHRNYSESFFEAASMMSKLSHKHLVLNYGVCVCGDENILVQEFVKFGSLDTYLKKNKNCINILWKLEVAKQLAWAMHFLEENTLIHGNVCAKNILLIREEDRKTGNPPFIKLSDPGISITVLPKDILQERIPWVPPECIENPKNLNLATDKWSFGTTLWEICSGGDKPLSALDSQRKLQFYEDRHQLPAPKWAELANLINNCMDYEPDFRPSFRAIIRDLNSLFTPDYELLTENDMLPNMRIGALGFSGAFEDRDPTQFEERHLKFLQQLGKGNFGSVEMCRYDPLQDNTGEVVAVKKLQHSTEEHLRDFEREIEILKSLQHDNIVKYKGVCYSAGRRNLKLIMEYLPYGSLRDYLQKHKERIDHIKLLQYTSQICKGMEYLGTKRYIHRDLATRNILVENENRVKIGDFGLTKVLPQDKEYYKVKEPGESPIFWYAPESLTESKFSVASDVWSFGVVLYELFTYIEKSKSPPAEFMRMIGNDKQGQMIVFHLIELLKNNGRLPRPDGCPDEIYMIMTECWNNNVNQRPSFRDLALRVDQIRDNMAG
A general note: TR-FRET usually uses a lanthanide donor and a delayed reading to cut background.

The target of data set [3] is JAK1 (Homo sapiens, UniProt P23458). The experiment in a line: JAK kinase activity inhibition, TR-FRET (JAK1). The class given is biochemical. The conditions noted are these: TR-FRET kinase assay. In short, it runs like this:
as §1

In data set [4] the target is TYK2 (Homo sapiens, UniProt P29597). Nature of the data set: JAK kinase activity inhibition, TR-FRET (TYK2). Format: biochemical. The conditions noted are these: TR-FRET kinase assay. In short, it runs like this: as §1
TYK2, sequence (P29597 whole entry): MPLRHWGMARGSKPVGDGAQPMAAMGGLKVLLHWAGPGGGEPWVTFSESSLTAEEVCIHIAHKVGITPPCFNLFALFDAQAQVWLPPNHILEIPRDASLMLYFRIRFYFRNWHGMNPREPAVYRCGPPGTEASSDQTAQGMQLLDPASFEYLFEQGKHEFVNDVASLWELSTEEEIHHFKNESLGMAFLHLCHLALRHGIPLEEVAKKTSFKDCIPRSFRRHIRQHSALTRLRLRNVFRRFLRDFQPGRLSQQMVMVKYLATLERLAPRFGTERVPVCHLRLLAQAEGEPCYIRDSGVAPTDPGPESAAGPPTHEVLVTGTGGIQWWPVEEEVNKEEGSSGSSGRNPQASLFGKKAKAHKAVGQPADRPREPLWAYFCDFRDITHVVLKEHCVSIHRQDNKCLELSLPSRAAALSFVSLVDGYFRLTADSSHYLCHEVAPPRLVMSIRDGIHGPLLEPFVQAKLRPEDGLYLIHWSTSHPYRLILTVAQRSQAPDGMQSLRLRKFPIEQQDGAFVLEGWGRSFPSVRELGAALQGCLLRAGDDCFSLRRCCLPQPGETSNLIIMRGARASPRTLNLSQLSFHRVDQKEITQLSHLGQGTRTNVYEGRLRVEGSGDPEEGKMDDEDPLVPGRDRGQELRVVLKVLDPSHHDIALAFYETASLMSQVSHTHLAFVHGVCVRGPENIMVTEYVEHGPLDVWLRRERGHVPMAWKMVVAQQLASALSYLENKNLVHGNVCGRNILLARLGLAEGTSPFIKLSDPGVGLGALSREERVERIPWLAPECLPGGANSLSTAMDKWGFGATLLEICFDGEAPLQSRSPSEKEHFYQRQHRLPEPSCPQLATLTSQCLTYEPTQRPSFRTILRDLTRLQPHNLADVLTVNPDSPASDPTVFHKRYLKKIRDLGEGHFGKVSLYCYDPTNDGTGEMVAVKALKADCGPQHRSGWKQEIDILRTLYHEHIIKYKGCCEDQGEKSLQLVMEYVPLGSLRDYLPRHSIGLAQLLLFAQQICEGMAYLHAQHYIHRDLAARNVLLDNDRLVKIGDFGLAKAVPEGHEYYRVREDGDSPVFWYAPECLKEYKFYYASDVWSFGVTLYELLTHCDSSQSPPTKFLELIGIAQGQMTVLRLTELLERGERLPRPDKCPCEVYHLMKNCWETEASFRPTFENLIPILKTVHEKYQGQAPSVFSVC

Read-outs that look alike come from different tables or passages of the source.

JAK1, sequence (P23458 whole entry): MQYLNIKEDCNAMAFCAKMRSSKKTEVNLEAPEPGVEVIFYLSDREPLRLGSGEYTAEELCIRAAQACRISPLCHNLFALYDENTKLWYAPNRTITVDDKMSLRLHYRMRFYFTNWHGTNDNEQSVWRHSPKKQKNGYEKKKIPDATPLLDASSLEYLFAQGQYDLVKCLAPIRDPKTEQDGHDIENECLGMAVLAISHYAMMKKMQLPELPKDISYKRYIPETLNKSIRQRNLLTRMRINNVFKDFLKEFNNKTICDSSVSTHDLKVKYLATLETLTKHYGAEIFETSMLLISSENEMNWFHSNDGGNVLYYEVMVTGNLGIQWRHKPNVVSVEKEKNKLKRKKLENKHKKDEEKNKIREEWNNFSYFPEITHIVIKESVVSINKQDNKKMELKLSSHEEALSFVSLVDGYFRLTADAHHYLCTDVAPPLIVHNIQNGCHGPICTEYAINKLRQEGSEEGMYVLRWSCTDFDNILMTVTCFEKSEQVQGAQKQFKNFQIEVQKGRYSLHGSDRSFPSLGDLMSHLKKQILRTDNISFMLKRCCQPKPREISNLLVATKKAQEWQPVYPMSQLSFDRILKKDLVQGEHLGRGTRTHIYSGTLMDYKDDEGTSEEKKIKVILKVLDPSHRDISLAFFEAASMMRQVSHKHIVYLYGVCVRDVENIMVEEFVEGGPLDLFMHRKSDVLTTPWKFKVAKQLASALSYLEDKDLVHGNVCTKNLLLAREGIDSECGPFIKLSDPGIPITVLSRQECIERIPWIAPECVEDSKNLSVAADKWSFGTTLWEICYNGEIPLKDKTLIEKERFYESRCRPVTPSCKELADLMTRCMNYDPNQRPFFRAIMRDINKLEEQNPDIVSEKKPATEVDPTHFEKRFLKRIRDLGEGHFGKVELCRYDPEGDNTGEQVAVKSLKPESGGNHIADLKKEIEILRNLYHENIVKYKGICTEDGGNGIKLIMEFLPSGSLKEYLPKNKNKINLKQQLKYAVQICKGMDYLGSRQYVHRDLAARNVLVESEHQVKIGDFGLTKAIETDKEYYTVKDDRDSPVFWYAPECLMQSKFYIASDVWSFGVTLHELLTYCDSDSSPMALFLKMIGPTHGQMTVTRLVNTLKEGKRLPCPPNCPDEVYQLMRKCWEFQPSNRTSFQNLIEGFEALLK

`Cc1cc(Nc2nc(N[C@@H]3C[C@H]4CC[C@@H](C3)N4S(=O)(=O)N3CC(C#N)C3)nc3ccccc23)n[nH]1` [Embodiment 213, 1-(((3-exo)-3-((4-((5-methyl-1H-pyrazol-3-yl)amino)quinazolin-2-yl)amino)-8-azabicyclo[3.2.1]oct-8-yl)sulfonyl)azetindin-3-formonitrile]: the Cmax in data set [1] (plasma, blood) was determined as 9.69 ng/mL; in data set [1] (colon), 1750 ng/mL; in data set [1] (ileum), 321 ng/mL. For the same compound, the AUC(0-t) in data set [1] (plasma, blood) was 7.37 ng·h/mL; in data set [1] (colon), 4930 ng·h/mL; in data set [1] (ileum) it was 1240 ng·h/mL. Besides, the MRT in data set [1] (plasma, blood) worked out at 2.66 h; in data set [1] (colon), 4.92 h; in data set [1] (ileum), 4.26 h. The Tmax in data set [1] (plasma, blood) stood at 3 h; in data set [1] (colon) it was 5 h; in data set [1] (ileum) it was 5 h. Also, the IC50 amounted to 0.3 nM in data set [2], 0.2 nM in data set [3] and 0.46 nM in data set [4].
`Cc1cc(Nc2nc(N[C@@H]3C[C@H]4CC[C@@H](C3)N4CCC#N)nc3sc(C)cc23)n[nH]1` [Embodiment 277, 3-((3-exo)-3-((6-methyl-4-((5-methyl-1H-pyrazol-3-yl)amino)thieno[2,3-d]pyrimidin-2-yl)amino)-8-azabicyclo[3.2.1]oct-8-yl)propionitrile]: in data set [1] (plasma, blood), the Cmax turned out to be 12 ng/mL, the AUC(0-t) turned out to be 29.1 ng·h/mL, the AUC(0-inf) is 31.1 ng·h/mL and the half-life is 0.96 h. Moreover, in data set [1] (plasma, blood), the MRT came to 2.53 h and the Tmax was found to be 2 h. Besides, in data set [1] (colon), the Cmax was 649 ng/mL, the AUC(0-t) turned out to be 2890 ng·h/mL, the MRT turned out to be 3.89 h and the Tmax is 7 h. For the same compound, in data set [1] (ileum), the Cmax is 18700 ng/mL, the AUC(0-t) worked out at 43000 ng·h/mL, the AUC(0-inf) was determined as 43300 ng·h/mL and the half-life was 0.92 h. Besides, in data set [1] (ileum), the MRT stood at 1.77 h and the Tmax amounted to 1 h. Besides, the IC50 in data set [2] amounted to 1.01 nM. Further, the IC50 in data set [3] was determined as 0.61 nM. In addition, the IC50 in data set [4] turned out to be 0.58 nM.
